Results reported in patent EP2077855B1, “THERAPEUTIC USE OF GBA2” (Yildiz, Dr. med., Yildiz, priority 2006, dated 2008).
Values joined by “and” are separate entries in the source; they are usually repeats but may differ in a detail not shown here. Equal values may be shown once.

Columns and labels:
[1] = target: T1, human liver microsomal GBA2 activity (Homo sapiens, UniProt Q9HCG7); experiment: Glucosidase activity of human liver microsomes upon addition of test compounds; type: biochemical; design: enzyme activity: unit not given here; conditions: human liver microsomes diluted 1:8 with Chaps, incubation time 15; for mean value: mean counts
T1 construct: from tissue; host or cells: human liver microsomes
T1 sequence (Q9HCG7 1-927): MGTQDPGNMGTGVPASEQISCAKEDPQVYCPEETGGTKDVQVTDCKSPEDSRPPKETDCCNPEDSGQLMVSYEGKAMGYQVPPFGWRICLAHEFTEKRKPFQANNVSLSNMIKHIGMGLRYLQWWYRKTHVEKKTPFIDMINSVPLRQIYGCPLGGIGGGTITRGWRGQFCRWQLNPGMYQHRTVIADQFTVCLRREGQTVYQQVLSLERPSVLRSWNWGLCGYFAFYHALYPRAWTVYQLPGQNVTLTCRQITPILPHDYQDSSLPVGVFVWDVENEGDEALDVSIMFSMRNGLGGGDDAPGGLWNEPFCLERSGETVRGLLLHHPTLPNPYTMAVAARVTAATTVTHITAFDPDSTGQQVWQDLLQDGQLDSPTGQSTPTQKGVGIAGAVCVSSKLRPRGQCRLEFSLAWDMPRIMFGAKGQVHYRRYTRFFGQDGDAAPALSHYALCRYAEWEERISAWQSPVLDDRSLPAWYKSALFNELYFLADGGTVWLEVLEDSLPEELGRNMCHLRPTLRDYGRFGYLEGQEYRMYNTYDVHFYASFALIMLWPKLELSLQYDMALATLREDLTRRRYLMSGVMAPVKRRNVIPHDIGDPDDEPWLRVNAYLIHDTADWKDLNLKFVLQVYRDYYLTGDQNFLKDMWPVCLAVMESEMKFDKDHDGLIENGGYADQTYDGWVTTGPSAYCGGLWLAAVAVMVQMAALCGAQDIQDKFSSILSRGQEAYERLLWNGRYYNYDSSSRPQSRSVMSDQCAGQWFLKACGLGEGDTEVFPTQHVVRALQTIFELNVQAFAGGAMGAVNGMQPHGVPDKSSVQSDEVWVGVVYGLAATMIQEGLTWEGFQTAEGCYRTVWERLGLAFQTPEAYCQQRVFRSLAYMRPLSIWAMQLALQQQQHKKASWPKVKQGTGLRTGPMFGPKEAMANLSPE
Procedure: (§1) Following the method for measurement of glucosidase activity described in ((Matern, H. et al., J. Biol. Chem. 272:11,261-11,267 (1997), the effect of several test compounds (like bivalent cations and detergents) on the glucosidase activity of recombinant GBA2 produced in insect cells (His-tagged isolated enzyme) and of human liver microsomes was compared. The glucosidase activity of human liver was tested in a microsomal preparation. The tested compounds were: cations including nickel, zinc, cobalt, manganese, calcium, magnesium and barium; detergents including Chaps, Triton X100, taurocholate, Brij58; and phospholipids including lyso-phosphatidylcholine, sphingomyelin, phosphatidylcholine, phosphatidyl-serine, phosphatidylethanolamine and phosphatidylinositol. The enzyme activity results for the recombinant GBA2 were similar or even better than the results for human liver microsomal GBA2 activity. Representative results are summarized in Table 5; the data for the remaining test compounds is not shown. Result: Expression of GBA2 in insect cells leads to recombinant GBA2 whose glucosidase activity is similar to or even higher than the glucosidase activity of human liver microsomes. Table 5: Glucosidase activity of microsomal human liver and GBA2 from insect cells upon addition of sphingomyelin (A, B) and cobalt (C, D). The microsomal preparations were diluted 1:8 with Chaps before use. Measurements were performed in duplicate or triplicate.

[2] = target: T2, recombinant GBA2 produced in insect cells (His-tagged isolated enzyme) (Homo sapiens, UniProt Q9HCG7); experiment: Glucosidase activity of recombinant GBA2 produced in insect cells upon addition of test compounds; type: biochemical; design: enzyme activity: unit not given here; conditions: insect cell produced recombinant GBA2, incubation time 15; for mean value: mean counts
T2 construct: His tag; made in house; host or cells: insect cells
T2 sequence (Q9HCG7 1-927): T1 sequence (Q9HCG7 1-927)
Procedure: as §1

## [Co+2] [cobalt]
[1]; cobalt 0,01mM
  % of control: 87%
  counts: 180,77 and 193,04 and 191,08
  enzyme activity: 1,0961
  mean value: 188,30
[1]; cobalt 0,05mM
  % of control: 140%
  counts: 223,91 and 223,75 and 225,71
  enzyme activity: 1,7647
  mean value: 224,46
[1]; cobalt 0,001mM
  % of control: 81%
  enzyme activity: 1,0240
  mean value: 84,391
[1]; cobalt 1mM
  % of control: 155%
  counts: 234,69 and 233,72 and 236,26
  enzyme activity: 1,9576
  mean value: 234,89
[1]; cobalt 0,005mM
  % of control: 84%
  counts: 192,98 and 191,68 and 174,52
  enzyme activity: 1,0610
  mean value: 186,39
[1]; cobalt 5mM
  % of control: 163%
  counts: 233,59 and 235,10 and 251,13
  enzyme activity: 2,0510
  mean value: 239,941
[2]; cobalt 0,01mM
  % of control: 93%
  counts: 157,63 and 157,78
  enzyme activity: 0,1288
  mean value: 157,71
[2]; cobalt 0,1mM
  % of control: 115%
  counts: 161,62 and 167,45
  enzyme activity: 0,1604
  mean value: 164,54
[2]; cobalt 0,05mM
  % of control: 117%
  counts: 167,53 and 152,62 and 174,62
  enzyme activity: 0,1622
  mean value: 164,92
[2]; cobalt 0,5mM
  % of control: 273%
  counts: 206,30 and 217,85
  enzyme activity: 0,3802
  mean value: 212,08
[2]; cobalt 1mM
  % of control: 360%
  counts: 237,74 and 260,51 and 216,07
  enzyme activity: 0,5005
  mean value: 238,11
[2]; cobalt 5mM
  % of control: 97%
  counts: 208,68 and 319,94
  enzyme activity: 0,6216
  mean value: 264,31

## sphingomyelin
[1]; sphingomyelin 0,3mM
  mean value: 195,30
  % of control: 68%
  counts: 187,68 and 202,92
  enzyme activity: 1,4089
[1]; sphingomyelin 0,15mM
  mean value: 206,72
  % of control: 78%
  counts: 215,51 and 197,93
  enzyme activity: 1,6200
[1]; sphingomyelin 0,75mM
  mean value: 206,21
  % of control: 78%
  counts: 206,90 and 205,52
  enzyme activity: 1,6106
[1]; sphingomyelin 3mM
  mean value: 214,01
  % of control: 85%
  counts: 225,57 and 202,45
  enzyme activity: 1,7548
[1]; sphingomyelin 6mM
  mean value: 208,40
  % of control: 80%
  counts: 207,54 and 209,26
  enzyme activity: 1,6511
[1]; sphingomyelin 12mM
  mean value: 195,24
  % of control: 68%
  counts: 189,25 and 201,23
  enzyme activity: 1,4077
[1]; sphingomyelin 1,5mM
  mean value: 201,66
  % of control: 74%
  counts: 207,84 and 195,48
  enzyme activity: 1,5264
[2]; sphingomyelin 0,3mM
  mean value: 674,56
  % of control: 104%
  counts: 675,57 and 673,54
  enzyme activity: 2,5788
[2]; sphingomyelin 0,15mM
  mean value: 591,95
  % of control: 89%
  counts: 579,66 and 604,24
  enzyme activity: 2,1969
[2]; sphingomyelin 0,75mM
  mean value: 537,54
  % of control: 79%
  counts: 541,76 and 533,32
  enzyme activity: 1,9454
[2]; sphingomyelin 3mM
  mean value: 652,37
  % of control: 100%
  counts: 699,42 and 605,31
  enzyme activity: 2,4762
[2]; sphingomyelin 6mM
  mean value: 493,49
  % of control: 70%
  counts: 473,49 and 513,48
  enzyme activity: 1,7418
[2]; sphingomyelin 12mM
  mean value: 510,93
  % of control: 74%
  counts: 489,65 and 532,21
  enzyme activity: 1,8224
[2]; sphingomyelin 1,5mM
  mean value: 643,44
  % of control: 98%
  counts: 630,13 and 656,75
  enzyme activity: 2,4349
